Where a name gives a salt, the structure may show the parent alone.
Biological target: Glycogen synthase kinase-3 beta (Homo sapiens, UniProt P49841)
Test: GSK3beta kinase inhibitor potency, dose response, biochemical, luminescence, cell-free homogeneous, retest (AID 434954)

Sequence of Glycogen synthase kinase-3 beta (P49841 whole entry): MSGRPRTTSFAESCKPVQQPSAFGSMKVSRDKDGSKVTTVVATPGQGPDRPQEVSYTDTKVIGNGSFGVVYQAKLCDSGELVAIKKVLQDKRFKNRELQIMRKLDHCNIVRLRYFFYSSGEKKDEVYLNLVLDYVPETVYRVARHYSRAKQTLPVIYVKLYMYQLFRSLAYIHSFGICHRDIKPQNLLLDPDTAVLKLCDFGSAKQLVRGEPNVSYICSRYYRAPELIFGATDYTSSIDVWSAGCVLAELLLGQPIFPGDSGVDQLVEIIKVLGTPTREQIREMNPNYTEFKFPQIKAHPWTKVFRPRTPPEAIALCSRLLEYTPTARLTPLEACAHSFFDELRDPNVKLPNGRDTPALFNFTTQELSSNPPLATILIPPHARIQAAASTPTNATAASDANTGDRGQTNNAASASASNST

EC50 [µM] | Compound
> 300 | CNc1nc(N)nc(-c2cc(Cl)ccc2OC)n1 [6-(5-chloranyl-2-methoxy-phenyl)-N2-methyl-1,3,5-triazine-2,4-diamine]
> 300 | Cc1ccc2nc(-c3ccc4c(c3)NC(=O)CO4)cn2c1 [6-(6-methyl-2-imidazo[1,2-a]pyridinyl)-4H-1,4-benzoxazin-3-one]
98 | CC(C)CNc1nc(N)c([N+](=O)[O-])c(N2CCCCCC2)n1 [6-(azepan-1-yl)-N2-(2-methylpropyl)-5-nitro-pyrimidine-2,4-diamine]
18.7 | CCSc1ccc2nnc(-c3cccc(F)c3)n2n1 [6-(ethylthio)-3-(3-fluorophenyl)-[1,2,4]triazolo[4,3-b]pyridazine]
> 300 | COc1ccc(-c2cc(-c3ccco3)nc(O)c2C#N)cc1 [6-(furan-2-yl)-4-(4-methoxyphenyl)-2-oxidanylidene-1H-pyridine-3-carbonitrile]
> 300 | Cc1cccc(Nc2nc(N)c([N+](=O)[O-])c(N3CCOCC3)n2)c1 [6-Morpholin-4-yl-5-nitro-N*2*-m-tolyl-pyrimidine-2,4-diamine]
> 300 | O=C(CSc1n[nH]c(=O)[nH]c1=O)c1ccc(Cl)cc1Cl [6-[2-(2,4-dichlorophenyl)-2-oxoethyl]sulfanyl-2H-1,2,4-triazine-3,5-dione]
> 300 | CC(CC(=O)N1CCN(c2cccc(Cl)c2)CC1)S(=O)(=O)c1ccc2c(c1)NC(=O)CO2 (stereo not given) [6-[4-[4-(3-chlorophenyl)piperazin-1-yl]-4-oxobutan-2-yl]sulfonyl-4H-1,4-benzoxazin-3-one]
> 300 | CCNc1nc(N)nc(Oc2ccc(OCCOc3ccc(Cl)cc3Cl)nn2)n1 [6-[6-[2-(2,4-dichlorophenoxy)ethoxy]pyridazin-3-yl]oxy-2-N-ethyl-1,3,5-triazine-2,4-diamine]
13.8 | CCC(=O)Nc1sc2c(c1C(N)=O)CCN(C(C)=O)C2 [6-acetyl-2-(1-oxopropylamino)-5,7-dihydro-4H-thieno[2,3-c]pyridine-3-carboxamide]
> 300 | CC(=O)N1CCc2c(sc(NC(=O)C3CCCN3S(=O)(=O)c3cccs3)c2C(N)=O)C1 (stereo not given) [6-acetyl-2-[(1-thiophen-2-ylsulfonylpyrrolidine-2-carbonyl)amino]-5,7-dihydro-4H-thieno[2,3-c]pyridine-3-carboxamide]
2.29 | CC(=O)N1CCc2c(sc(NC(=O)CN3C(=O)CCC3=O)c2C(N)=O)C1 [6-acetyl-2-[[2-(2,5-dioxopyrrolidin-1-yl)acetyl]amino]-5,7-dihydro-4H-thieno[2,3-c]pyridine-3-carboxamide]
47.2 | CC(=O)N1CCc2c(sc(NC(=O)Cc3ccc(F)cc3)c2C(N)=O)C1 [6-acetyl-2-[[2-(4-fluorophenyl)-1-oxoethyl]amino]-5,7-dihydro-4H-thieno[2,3-c]pyridine-3-carboxamide]
> 300 | Nc1ccc2oc(-c3ccccc3Cl)cc(O)c-2c1=O [6-amino-2-(2-chlorophenyl)-5-hydroxy-1-benzopyran-4-one]
14.8 | CCOC(=O)c1cnc2ccc(Cl)cc2c1N1CCN(C)CC1 [6-chloro-4-(4-methyl-1-piperazinyl)-3-quinolinecarboxylic acid ethyl ester]
> 300 | CC(C)c1ccc(NS(=O)(=O)c2ccc(Cl)nc2)cc1 [6-chloro-N-(4-propan-2-ylphenyl)pyridine-3-sulfonamide]
16.3 | COc1cccc(-c2nnc3sc(C4CCCCC4)nn23)c1 [6-cyclohexyl-3-(3-methoxyphenyl)-[1,2,4]triazolo[3,4-b][1,3,4]thiadiazole]
26.2 | CC(=O)N1CCc2c(sc(NC(=O)CCS(=O)(=O)c3ccc(C)cc3)c2C(N)=O)C1 [6-ethanoyl-2-[3-(4-methylphenyl)sulfonylpropanoylamino]-5,7-dihydro-4H-thieno[2,3-c]pyridine-3-carboxamide]
> 300 | CCN1CCc2c(sc(NC(=O)Cc3ccccc3)c2C(N)=O)C1 [6-ethyl-2-[(1-oxo-2-phenylethyl)amino]-5,7-dihydro-4H-thieno[2,3-c]pyridine-3-carboxamide;hydrochloride]
11.3 | CCSc1ccc2nnc(-c3cccs3)n2n1 [6-ethylsulfanyl-3-thiophen-2-yl-[1,2,4]triazolo[4,3-b]pyridazine]
> 300 | Cc1cc2oc(=O)cc(Cn3ccnc3)c2cc1O [6-hydroxy-4-(imidazol-1-ylmethyl)-7-methylchromen-2-one]
5.26 | CCOC(=O)c1cnc2ccc(OC)cc2c1Nc1ccc(N2CCN(C)CC2)cc1 [6-methoxy-4-[4-(4-methyl-1-piperazinyl)anilino]-3-quinolinecarboxylic acid ethyl ester]
29 | Cc1ccc2nc(-c3ccccc3)cn2c1 [6-methyl-2-phenyl-imidazo[1,2-a]pyridine;hydrobromide]
> 300 | CCOC(=O)c1cnc2ccc(C)cc2c1Nc1ccc(N2CCOCC2)cc1 [6-methyl-4-(4-morpholinoanilino)quinoline-3-carboxylic acid ethyl ester]
> 300 | O=C(NCCCN1CCCCC1)c1ccc2c(c1)NC(=O)c1ccccc1S2 [6-oxidanylidene-N-(3-piperidin-1-ylpropyl)-5H-benzo[b][1,4]benzothiazepine-3-carboxamide]

EC50 [µM] | Compound
> 300 | N#Cc1c(O)nc(SCC(=O)c2cccs2)nc1-c1cccs1 [6-oxo-2-{[2-oxo-2-(2-thienyl)ethyl]sulfanyl}-4-(2-thienyl)-1,6-dihydro-5-pyrimidinecarbonitrile]
> 300 | O=C1CCCC2=Nc3ccccc3NC(c3cccs3)C12 (stereo not given) [6-thiophen-2-yl-5,6,8,9,10,11-hexahydrobenzo[b][1,4]benzodiazepin-7-one]
> 300 | COc1cccc(C2CC(c3ccc(Cl)cc3)n3nc(N)nc3N2)c1 (stereo not given) [7-(4-chlorophenyl)-5-(3-methoxyphenyl)-1,5,6,7-tetrahydro-[1,2,4]triazolo[1,5-a]pyrimidin-2-amine]
31.4 | CN(C)Cc1c(O)ccc2c1O/C(=C\C=C\c1ccccc1)C2=O [7-Dimethylaminomethyl-6-hydroxy-2-[(E)-3-phenyl-prop-2-en-(Z)-ylidene]-benzofuran-3-one]
> 300 | O=C1C[C@@H](c2ccc(O)cc2)Oc2cc(O)ccc21 [7-Hydroxy-2-(4'-hydroxyphenyl)chroman-4-one]
> 300 | O=c1oc2cc(O)ccc2cc1-c1ccccc1 [7-Hydroxy-3-phenyl-chromen-2-one]
24.6 | O=c1cc(-c2ccccc2)c2ccc(O)cc2o1 [7-Hydroxy-4-phenyl-chromen-2-one]
> 300 | CC(C)C1Cc2c(sc3c2c(=O)n(-c2ccccc2)c2n[nH]c(=S)n32)CO1 (stereo not given) [7-Isopropyl-1-mercapto-4-phenyl-6,9-dihydro-4H,7H-8-oxa-10-thia-2,3,4,10b-tetraaza-cyclopenta[a]fluo ren-5-one]
> 300 | O=S(=O)(c1ccc(Br)cc1)N1CCN(c2cc(-c3ccccc3)nc3ncnn23)CC1 [7-[4-(4-bromophenyl)sulfonyl-1-piperazinyl]-5-phenyl-[1,2,4]triazolo[1,5-a]pyrimidine]
17.8 | Cc1c(CN(C)C)c2c(n1C)C(=O)c1ccc(Br)cc1-2 [7-bromo-1-[(dimethylamino)methyl]-2,3-dimethyl-4-indeno[2,3-b]pyrrolone;hydrochloride]
2.07 | O=C1NCCCc2c1oc1ccc(O)cc21 [7-hydroxy-2,3,4,5-tetrahydro-[1]benzofuro[2,3-c]azepin-1-one]
> 300 | COc1ccc(-c2cc(=O)oc3c(C)c(O)ccc23)cc1 [7-hydroxy-4-(4-methoxyphenyl)-8-methylchromen-2-one]
> 300 | Cc1c(O)ccc2c(-c3ccccc3)cc(=O)oc12 [7-hydroxy-8-methyl-4-phenyl-1-benzopyran-2-one]
73.2 | CSc1nc(N)c2c3c(sc2n1)CN(C)CC3 [7-methyl-2-methylsulfanyl-6,8-dihydro-5H-pyrido[4,5]thieno[1,2-c]pyrimidin-4-amine]
> 300 | Cc1ccc2c(c1)Oc1ccc([N+](=O)[O-])cc1C(=O)N2 [7-methyl-2-nitrodibenzo[b,f][1,4]oxazepin-11(10H)-one]
> 300 | CSc1nc2c(c(=O)[nH]1)C(c1ccccc1)C1C(=O)CC(C)(C)CC1=N2 (stereo not given) [8,8-dimethyl-2-(methylthio)-5-phenyl-5,8,9,10-tetrahydropyrimido[4,5-b]quinoline-4,6(3H,7H)-dione]
> 300 | CC(C)Sc1nc2c(c(=O)[nH]1)C(c1cccs1)C1C(=O)CC(C)(C)CC1=N2 (stereo not given) [8,8-dimethyl-2-propan-2-ylsulfanyl-5-thiophen-2-yl-5,7,9,10-tetrahydro-1H-pyrimido[4,5-b]quinoline-4,6-dione]
> 300 | Cc1ccc(C2c3c([nH]c(=S)[nH]c3=O)N=C3CC(C)(C)CC(=O)C32)cc1 (stereo not given) [8,8-dimethyl-5-(4-methylphenyl)-2-sulfanylidene-5,7,9,10-tetrahydro-1H-pyrimido[4,5-b]quinoline-4,6-dione]
> 300 | CC1(C)CC(=O)C2C(=Nc3[nH]c(=S)[nH]c(=O)c3C2c2ccccc2)C1 (stereo not given) [8,8-dimethyl-5-phenyl-2-sulfanylidene-5,7,9,10-tetrahydro-1H-pyrimido[4,5-b]quinoline-4,6-dione]
5.34 | COc1cc2[nH]c(=O)n3nc(-c4ccccc4)nc3c2cc1OC [8,9-dimethoxy-2-phenyl[1,2,4]triazolo[1,5-c]quinazolin-5(6H)-one]
> 300 | Cc1oc2c(CN(C)C)c(O)ccc2c(=O)c1-c1ccc2ccccc2n1 [8-[(dimethylamino)methyl]-2-methyl-7-oxidanyl-3-quinolin-2-yl-chromen-4-one]
> 300 | CCc1c(C)c2ccc(O)c(CN(C)C)c2oc1=O [8-[(dimethylamino)methyl]-3-ethyl-4-methyl-7-oxidanyl-chromen-2-one]
> 300 | COc1ccccc1Oc1coc2c(CN(C)C)c(O)ccc2c1=O [8-[(dimethylamino)methyl]-7-hydroxy-3-(2-methoxyphenoxy)chromen-4-one]
> 300 | COc1ccccc1-c1coc2c(CN(C)C)c(O)ccc2c1=O [8-[(dimethylamino)methyl]-7-hydroxy-3-(2-methoxyphenyl)chromen-4-one]
> 300 | O=c1cc(-c2ccccc2Cl)oc2c(Br)ccc(O)c12 [8-bromo-2-(2-chlorophenyl)-5-hydroxy-1-benzopyran-4-one]
